In experiment [1] the target is IDO enzyme (Homo sapiens (Human), UniProt P14902). In words: IDO enzyme inhibitory activity. Particulars: OD321 nm, 60 min. The format is biochemical. As for the experimental part: Firstly, the IDO gene was amplified by PCR, the PCR amplification products were recovered, and then the pET28a plasmid (purchased from Shanghai Baoman Biotechnology Co., Ltd.) and the IDO gel recovery products were digested with EcoR I and Xho I restriction endonucleases (37° C., digestion for 2 h), electrophorized and recovered. The recovered products were ligated overnight by a T4 ligase and then the ligation products were added to DH5α competent cells, placed on ice for 30 min, heat-shocked at 42° C. for 90 s, cultured on a shaker, and seeded to a plate. Monoclonies were picked, identified by PCR and then by sequencing.
The constructed BL21 containing the pET28a-IDO plasmid was cultured at 37° C. to OD600=0.6-0.8, and a final concentration of 7 μM of chlorine methemoglobin and 1 mM of IPTG (isopropyl-β-D-thiogalactoside) were added for induction at 28° C. for 4 h; after the induction, the cell was centrifuged at 6000 rpm at 4° C., the collected cells were washed once with 20 mM PBS (pH6.5), and centrifuged and collected again.
The collected cells were resuspended with a lysis solution (20 mM PBS pH 6.5), ultrasonically lysed (40% of power, lysis for 20 min, placed on ice), the lysed bacteria were centrifuged at 13000 rpm for 15 min, precipitate was discarded and the supernatant was maintained; the nickel column was equilibrated with the lysis solution (20 mM PBS pH 6.5) for 3 column volumes, and then the lysis supernatant was loaded onto the nickel column; after loading, four column volumes of a rinsing solution (20 mM PBS pH 6.5, 20 mM imidazole) were used for washing, and finally protein was eluted with eluent (20 mM PBS pH 6.5, 250 mM imidazole); the eluted protein solution was dialyzed for 4 h, and the dialysis solution was 20 mM PBS, pH 6.5. After the dialysis, the protein sample was concentrated, packed, flash frozen by liquid nitrogen, and stored at −80° C. for further use.
Firstly, the compound was subject to a 3-fold gradient dilution. 1 μL of each concentration was added to a 96-well plate; 50 μL of the IDO enzyme solution (final concentration 600 ng/100μL) was added: 25 μL of substrate 1 mixture solution was added, 25 μL of substrate 2 mixture solution was added to initiate the reaction. Finally, the plate was read at OD321 nm, 60 min.

The test system of experiment [2] is Hela cells. In words: Test for cell activity (Hela cells, interferon γ, kynurenine read at 480 nm). The format is cell-based. The following applies: human interferon γ 50 ng/mL, 48 h. The protocol:
Hela cells (100 μL) were inoculated on a 96-well plate at an inoculation amount of 5×10^3 per well and grown overnight. The next day, after the compound was diluted, 1 μL was added to a 96-well plate and then 100 μL of medium containing human interferon y (final concentration of 50 ng/mL) was added to the 96-well plate to allow the final volume to be 200 μL. 48 h after incubating, 140 μL of supernatant in each well was transferred to a new 96-well plate. 10 μL of 6.1 N trichloroacetic acid was added to each well and mixed and incubated at 50° C. for 30 min, IDO catalyzed N-formyl canine urea to become canine urea. The reaction mixture was centrifuged at 2500 rpm for 10 minutes to remove the precipitate. 100 μL of supernatant in each well was transferred to a new 96-well plate and mixed with 100 μL of 2% dimethylaminobenzaldehyde acetic acid solution. After the canine urea was separated, the value was measured at 480 nm using a SPECTRAmax i3 reader.

pIC50: −log10 of the molar value.

Sequence of IDO enzyme (P14902 whole entry): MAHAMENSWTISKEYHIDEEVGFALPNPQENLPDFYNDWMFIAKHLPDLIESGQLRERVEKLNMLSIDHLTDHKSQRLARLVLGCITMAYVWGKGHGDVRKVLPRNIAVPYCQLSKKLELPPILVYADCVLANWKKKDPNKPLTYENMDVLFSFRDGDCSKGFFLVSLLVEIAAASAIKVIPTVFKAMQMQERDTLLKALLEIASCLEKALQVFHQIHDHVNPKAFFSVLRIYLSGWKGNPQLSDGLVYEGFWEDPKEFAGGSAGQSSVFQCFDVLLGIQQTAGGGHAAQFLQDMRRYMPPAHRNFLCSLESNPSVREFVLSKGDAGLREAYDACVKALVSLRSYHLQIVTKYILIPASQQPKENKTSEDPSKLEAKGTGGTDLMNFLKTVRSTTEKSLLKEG

For `CS(=N)(=O)CCNc1nonc1/C(=N/O)Nc1ccc(F)c(Br)c1` (racemic) [compound 1, (±) (Z)—N-(3-bromo-4-fluorophenyl)-N′-hydroxy-4-((2-(thio-methylsulfoxideimine)ethyl)amino)-1,2,5-oxadiazole-3-carboxamidine], the pIC50 in experiment [1] was 7.66; in experiment [2], 7.40. For the molecule `CS(=N)(=O)CCCNc1nonc1/C(=N/O)Nc1ccc(F)c(Br)c1` (racemic) [compound 2, (±)(Z)—N-(3-bromo-4-fluorophenyl)-N′-hydroxy-4-((3-(thio-methylsulfoxideimine)propyl)amino)-1,2,5-oxadiazole-3-carboxamidine], the values for the pIC50 in experiment [1] and in experiment [2] were over 5.52 and over 7.00, respectively. The matching figures for `CS(=N)(=O)CCCCNc1nonc1/C(=N/O)Nc1ccc(F)c(Br)c1` (racemic) [compound 3, (±)(Z)—N-(3-bromo-4-fluorophenyl)-N′-hydroxy-4-((4-(thio-methylsulfoxideimine)butyl)amino)-1,2,5-oxadiazole-3-carboxamidine]: 7.13 and 8.10. The matching figures for `CS(=N)(=O)CCCCNc1nonc1/C(=N/O)Nc1ccc(F)c(C(F)(F)F)c1` (racemic) [compound 4, (±)(Z)—N-(4-fluoro-3-(trifluoromethyl)phenyl)-N′-hydroxy-4-((4-(thio-methylsulfoxideimine)butyl)amino)-1,2,5-oxadiazole-3-carboxamidine]: over 4.72 and over 6.30.

For `CS(=N)(=O)CCCCNc1nonc1/C(=N/O)Nc1cccc(C(F)(F)F)c1` (racemic) [compound 5, (±)(Z)—N′-hydroxy-4-((4-(thio-methylsulfoxideimine)butyl)amino)-N-(3-(trifluoromethyl)phenyl)-1,2,5-oxadiazole-3-carboxamidine], the pIC50 in experiment [1] was over 5.44; in experiment [2], over 7.12. The matching figures for `N=S(=O)(CCNc1nonc1/C(=N/O)Nc1ccc(F)c(Br)c1)c1ccccc1` (racemic) [compound 7, (±) (Z)—N-(3-bromo-4-fluorophenyl)-N′-hydroxy-4-((2-(thio-phenylsulfoxideimine)ethyl)amino)-1,2,5-oxadiazole-3-carboxamidine]: over 5.59 and over 6.59.

Turning to `CS(=N)(=O)CCCNc1nonc1/C(=N/O)Nc1cccc(S(F)(F)(F)(F)F)c1` (racemic) [compound 8], the pIC50 in experiment [1] is over 4.85; in experiment [2], over 6.10. The matching figures for `CS(=O)(CCCNc1nonc1/C(=N/O)Nc1ccc(F)c(Br)c1)=NC#N` (racemic) [compound 9, (±) (Z)—N-(3-bromo-4-fluorophenyl)-N′-hydroxy-4-((3-(thio-methylsulfoxidecyanoamine)propyl)amino)-1,2,5-oxadiazole-3-carboxamidine]: 7.46 and 8.33. For the molecule `CS(=O)(CCCNc1nonc1/C(=N/O)Nc1ccc(F)c(Cl)c1)=NC#N` (racemic) [compound 10, (±) (Z)—N-(3-chloro-4-fluorophenyl)-N′-hydroxy-4-((3-(thio-methylsulfoxidecyanoamine)propyl)amino)-1,2,5-oxadiazole-3-carboxamidine], the pIC50 in experiment [1] was over 5.30; in experiment [2], 8.55. The matching figures for `CS(=O)(CCCCNc1nonc1/C(=N/O)Nc1ccc(F)c(Br)c1)=NC#N` (racemic) [compound 11, (±) (Z)—N-(3-bromo-4-fluorophenyl)-N′-hydroxy-4-((4-(thio-methylsulfoxidecyanoamine)butyl)amino)-1,2,5-oxadiazole-3-carboxamidine]: 7.26 and 8.12. As to `CS(=O)(CCCCNc1nonc1/C(=N/O)Nc1ccc(F)c(Cl)c1)=NC#N` (racemic) [compound 12, (±)(Z)—N-(3-chloro-4-fluorophenyl)-N′-hydroxy-4-((4-(thio-methylsulfoxidecyanoamine)butyl)amino)-1,2,5-oxadiazole-3-carboxamidine], the values for the pIC50 in experiment [1] and in experiment [2] were over 4.74 and 8.55, respectively. The matching figures for `CCC(C)(C)C(=O)O/N=C(\Nc1ccc(F)c(Br)c1)c1nonc1NCCS(C)(=O)=NC#N` (racemic) [compound 13, (±) (Z)—N-(3-bromo-4-fluorophenyl)-N′-hydroxy(thio-methylsulfoxidecyanoamine)ethyl)amino)-1,2,5-oxadiazole-3-(2,2-dimethyl) butyrate]: 6.74 and 7.85. The matching figures for `CC(C)C(=O)O/N=C(\Nc1ccc(F)c(Br)c1)c1nonc1NCCS(C)(=O)=NC#N` (racemic) [compound 14, (±)(Z)—N-(3-Br-4-fluorophenyl)-N′-hydroxy-4-((2-(thio-methylsulfoxidecyanoamine)ethyl)amino)-1,2,5-oxadiazole-3-isobutyrate]: 6.92 and 8.66. The matching figures for `CC(C)(C)C(=O)O/N=C(\Nc1ccc(F)c(Br)c1)c1nonc1NCCS(C)(=O)=NC#N` (racemic) [compound 15, (±)(Z)—N-(3-bromo-4-fluorophenyl)-N′-hydroxy-4-((2-(thio-methylsulfoxidecyanoamine)ethyl)amino)-1,2,5-oxadiazole-3-trimethyl acetate]: 6.44 and 7.33. `CS(=O)(CCNc1nonc1/C(=N/O)Nc1ccc(F)c(Br)c1)=NC#N` (single isomer, unassigned) [compound 6A]: the pIC50 in experiment [1] is over 7.06; in experiment [2], 9.52. With `CS(=O)(CCNc1nonc1/C(=N/O)Nc1ccc(F)c(Br)c1)=NC#N` (single isomer, unassigned) [compound 6B], the pIC50 was over 7.09 in experiment [1] and 9.22 in experiment [2].

For the molecule `c1ccc(-c2cnc[nH]2)cc1` [5-phenyl-1-imidazole, reference compound], in experiment [2], the pIC50 is under 4.30. On to `C[S@@](=N)(=O)CCNc1nonc1/C(=N/O)Nc1ccc(F)c(Br)c1` [compound 1A], for which the values for the pIC50 in experiment [1] and in experiment [2] were over 5.25 and over 7.15, respectively. On to `C[S@](=N)(=O)CCNc1nonc1/C(=N/O)Nc1ccc(F)c(Br)c1` [compound 1B], for which the negative logarithm of the IC50 (pIC50) in experiment [1] was over 5.28; in experiment [2], over 7.10.

The values are drawn from patent US11053207B2, “Indoleamine-2,3-dioxygenase inhibitor and preparation method therefor” (SHANGHAI INSTITUTE OF ORGANIC CHEMISTRY, CHINESE ACADEMY OF …, priority 2014, dated 2021).
